Earlier results as cited in US20260209864A1, “METHOD FOR DETERMINING AND IMPROVING THE POTENTIAL EFFICACY OF ANTICANCER TREATMENT” (ASSISTANCE PUBLIQUE - HOPITAUX DE PARIS, priority 2022, published 2026).

Columns and labels:
[1] = test system: hematological malignancies; settings: early administration during allo-HSCT
[2] = after lung transplantation

- risk of hematological malignancies relapses [1]: unexpectedly increased risk
SMILES: CC[C@H]1OC(=O)[C@H](C)[C@@H](O[C@H]2C[C@@](C)(OC)[C@@H](O)[C@H](C)O2)[C@H](C)[C@@H](O[C@@H]2O[C@H](C)C[C@H](N(C)C)[C@H]2O)[C@](C)(O)C[C@@H](C)CN(C)[C@H](C)[C@@H](O)[C@]1(C)O [azithromycin]
- prevention of BOS [2]: prevents BOS
